# Data as given in paper PMC3761975 (Current drug safety, 2010).
# Like-named read-outs stand apart in the source and are kept apart here.
# Legend:
# CYP3A4 [1] = conditions: cited from earlier work
# CYP2C9, CYP3A4 = experiment: in vitro; conditions: human, pH 7.5
# CYP1A2 [2] = molecular target: T1, CYP1A2 (Homo sapiens, UniProt P05177); experiment: CYP1A2 fluorometric microtiter plate inhibition assay
# T1 sequence (P05177 1-516): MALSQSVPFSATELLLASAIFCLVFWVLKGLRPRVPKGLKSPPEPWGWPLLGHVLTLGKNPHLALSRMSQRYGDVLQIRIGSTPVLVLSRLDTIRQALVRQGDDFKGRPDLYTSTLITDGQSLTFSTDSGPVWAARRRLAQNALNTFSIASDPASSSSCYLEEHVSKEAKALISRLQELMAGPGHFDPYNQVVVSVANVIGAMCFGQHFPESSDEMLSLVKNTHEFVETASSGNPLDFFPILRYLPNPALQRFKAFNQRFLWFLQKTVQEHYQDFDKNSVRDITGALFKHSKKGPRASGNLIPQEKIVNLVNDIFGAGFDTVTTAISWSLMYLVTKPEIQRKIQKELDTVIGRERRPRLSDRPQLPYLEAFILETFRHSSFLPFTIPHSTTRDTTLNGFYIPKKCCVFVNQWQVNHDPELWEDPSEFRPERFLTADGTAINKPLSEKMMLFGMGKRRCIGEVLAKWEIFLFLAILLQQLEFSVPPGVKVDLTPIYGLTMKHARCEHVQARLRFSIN
# CYP2C9 [3] = molecular target: T2, CYP2C9 (Homo sapiens, UniProt P11712); experiment: CYP2C9 fluorometric microtiter plate inhibition assay
# T2 sequence (P11712 whole entry): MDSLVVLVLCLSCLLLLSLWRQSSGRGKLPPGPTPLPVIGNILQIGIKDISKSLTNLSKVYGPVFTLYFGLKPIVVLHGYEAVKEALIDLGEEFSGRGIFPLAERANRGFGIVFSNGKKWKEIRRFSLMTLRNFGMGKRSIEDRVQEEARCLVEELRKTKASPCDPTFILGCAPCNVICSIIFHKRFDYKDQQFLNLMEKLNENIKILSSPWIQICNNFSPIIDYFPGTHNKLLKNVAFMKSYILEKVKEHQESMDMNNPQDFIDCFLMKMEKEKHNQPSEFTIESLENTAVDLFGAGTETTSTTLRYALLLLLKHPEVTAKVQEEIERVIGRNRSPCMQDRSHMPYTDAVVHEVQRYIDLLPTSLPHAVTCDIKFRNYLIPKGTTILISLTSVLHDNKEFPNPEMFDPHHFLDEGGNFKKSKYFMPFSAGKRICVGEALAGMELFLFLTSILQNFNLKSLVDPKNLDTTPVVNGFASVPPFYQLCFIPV
# CYP2D6 [4] = molecular target: T3, CYP2D6 (Homo sapiens, UniProt P10635); experiment: CYP2D6 fluorometric microtiter plate inhibition assay
# T3 sequence (P10635 whole entry): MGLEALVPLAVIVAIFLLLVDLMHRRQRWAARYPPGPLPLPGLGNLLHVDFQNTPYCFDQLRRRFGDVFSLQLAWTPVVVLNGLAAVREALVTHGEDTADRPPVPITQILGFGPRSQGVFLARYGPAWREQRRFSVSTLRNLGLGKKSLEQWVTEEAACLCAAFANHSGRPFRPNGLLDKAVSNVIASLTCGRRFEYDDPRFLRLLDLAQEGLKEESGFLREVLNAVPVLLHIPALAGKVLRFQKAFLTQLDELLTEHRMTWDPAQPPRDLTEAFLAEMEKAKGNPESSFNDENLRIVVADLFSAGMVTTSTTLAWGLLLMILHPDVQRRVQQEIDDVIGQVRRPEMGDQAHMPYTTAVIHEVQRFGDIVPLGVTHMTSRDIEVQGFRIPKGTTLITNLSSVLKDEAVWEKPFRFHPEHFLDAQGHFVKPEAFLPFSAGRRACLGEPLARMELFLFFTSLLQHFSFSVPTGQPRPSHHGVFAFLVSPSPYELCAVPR
# CYP3A4 [5] = molecular target: T4, CYP3A4 (Homo sapiens, UniProt P08684); experiment: CYP3A4 fluorometric microtiter plate inhibition assay
# T4 sequence (P08684 whole entry): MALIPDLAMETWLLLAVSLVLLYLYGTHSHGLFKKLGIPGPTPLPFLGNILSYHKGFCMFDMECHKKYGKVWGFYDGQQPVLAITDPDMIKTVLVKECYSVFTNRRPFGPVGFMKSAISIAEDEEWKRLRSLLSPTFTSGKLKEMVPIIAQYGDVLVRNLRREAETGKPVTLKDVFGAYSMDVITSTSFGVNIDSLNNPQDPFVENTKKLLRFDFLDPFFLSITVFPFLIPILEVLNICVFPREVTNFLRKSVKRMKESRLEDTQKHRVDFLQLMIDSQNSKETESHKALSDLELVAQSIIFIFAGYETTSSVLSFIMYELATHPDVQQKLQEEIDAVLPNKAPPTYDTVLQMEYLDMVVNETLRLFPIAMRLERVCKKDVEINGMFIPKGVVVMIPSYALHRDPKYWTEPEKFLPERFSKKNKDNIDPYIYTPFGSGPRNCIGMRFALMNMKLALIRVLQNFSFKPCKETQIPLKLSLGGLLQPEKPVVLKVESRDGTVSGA
# [6] = tested on: CYP1A2, CYP2C9, CYP2D6, CYP3A4; experiment: CYP isozyme bioassays, results stated across several isozymes; conditions: human, pH 7.5
# CYP1A2 [7] = molecular target: T1, CYP1A2; conditions: recombinant enzyme
# CYP3A4 [8] = molecular target: T4, CYP3A4; conditions: recombinant enzyme
# CYP2C9 [9] = molecular target: T2, CYP2C9; conditions: recombinant enzyme
# CYP2D6 [10] = molecular target: T3, CYP2D6; conditions: recombinant enzyme
# CYP 1A2 = conditions: cited from earlier work
# CYP 2D6 = conditions: read-out: Literature IC50, CYP 2D6; published limits; cited from earlier work
# CYP 2C9 = conditions: read-out: Literature IC50, CYP 2C9; published limits; cited from earlier work
SMILES,IC50 (CYP1A2 [2]) [µM],IC50 (CYP2C9 [3]) [µM],IC50 (CYP2D6 [4]) [µM],IC50 (CYP3A4 [5]) [µM],also measured
CC(=O)O[C@@H]1C[C@@]23C[C@@]24CC[C@H](O[C@@H]2OC[C@@H](O)[C@H](O)[C@H]2O)C(C)(C)[C@@H]4CC[C@H]3[C@]2(C)C[C@@H]3O[C@]4(C[C@@H](C)[C@@H]3[C@@]12C)OC[C@@]1(C)O[C@@H]41 [26-deoxyactein],,,,,"IC50 (CYP3A4 [1]; read-out: IC50 for CYP3A4 inhibition, Tsukamoto et al.): 100 µM"
"CC(=O)O[C@@H]1C[C@@]23C[C@@]24CC[C@H](O[C@@H]2OC[C@@H](O)[C@H](O)[C@H]2O)C(C)(C)[C@@H]4CC[C@H]3[C@]2(C)C[C@@H]3O[C@]4(C[C@@H](C)[C@@H]3[C@@]12C)O[C@H](O)[C@@]1(C)O[C@@H]41 [Actein, actein]",> 100,25,51.1,35.2,"IC50 (CYP2C9, CYP3A4): 16.9 to 33.8 µM"
"COc1cc(/C=C/C(=O)O[C@H](C(=O)O)[C@](O)(Cc2ccc(O)c(O)c2)C(=O)O)ccc1O [CAA, Cimicifugic acid A]",7.2,8.3,9,9.7,IC50 [6]: 1.8 to 12.6 µM
"COc1ccc(/C=C/C(=O)O[C@H](C(=O)O)[C@](O)(Cc2ccc(O)c(O)c2)C(=O)O)cc1O [CAB, Cimicifugic acid B]",7.35,12.5,12.6,9.8,IC50 [6]: 1.8 to 12.6 µM
"CC(=O)O[C@@H]1C[C@@]23C[C@@]24CC[C@H](O[C@@H]2OC[C@@H](O)[C@H](O)[C@H]2O)C(C)(C)[C@@H]4CC[C@H]3[C@]2(C)C[C@@H]3O[C@@]4(C[C@@H](C)[C@@H]3[C@@]12C)OC[C@@]1(C)O[C@@H]41 [Deoyxactein, 23-epi-26-deoxyactein]",,,,,IC50 (CYP1A2 [7]): > 100 µM; IC50 (CYP3A4 [8]): 28.7 µM; IC50 (CYP2C9 [9]): 25.9 µM; IC50 (CYP2D6 [10]): 100 µM
"O=C(/C=C/c1ccc(O)c(O)c1)O[C@H](C(=O)O)[C@](O)(Cc1ccc(O)c(O)c1)C(=O)O [Fukinolic acid, fukinolic acid]",1.8,7.1,5.4,7.2,IC50 [6]: 1.8 to 12.6 µM
Oc1ccc(/C=C/c2cc(O)cc(O)c2)cc1 [resveratrol],,,,,IC50 (CYP 1A2; read-out: Inhibitory IC50 in CYP 1A2): 1.89 µM
